# Legend:
# [1] = system: rat lung fibroblast (LF); experiment: Cell contraction/relaxation on wrinkling silicone substrate, live videomicroscopy; format: cell-based; conditions: 10 μM and 50 μM
# Protocol: To study the effect(s) of the peptides on muscle cells, which associate with neurosecretory cells at neuromuscular junctions, peptides were cultured with rat lung fibroblast (LF) grown over wrinkling substrate (silicon) which can mimic the effects of contraction. These cells have a myofibroblastic phenotype, e.g., production of TGF-β, which make them suitable for cellular contraction/relaxation studies.
# Wrinkling silicone substrates were prepared as essentially described previously (Harris, et al., Science. 208:177-179, 1980; Hinz, et al., Mol Biol Cell. 12:2730-41, 2001). Briefly, 50 μl of silicone (poly dimethyl siloxane; 30.000 centistokes, Dow Corning, Midland, Mich.) were deposited onto a 35 mm round glass coverslip at the bottom of a self-made observation chamber, which was centrifuged at 1.000 rpm for 2 minutes to spread the viscous fluid. The silicone surface was then crosslinked by passing it through a Bunsen flame; a flaming time of 1 second produced a surface stiffness that restricted wrinkle formation to fibroblasts with high contractile force (Hinz et al., supra). The polymerized silicone surface was finally coated with 10 μg/ml collagen type I (Sigma) for 2 hours at 37° C. Lung fibroblast cells were seeded at a density of 3.5×10^3 cells/cm^2 and cultured for 1-2 days before the experiment. […]
# [2] = target: Recombinant furin (Homo sapiens, UniProt P09958); experiment: biochemical; format: biochemical
# Chain of Recombinant furin (P09958 108-794): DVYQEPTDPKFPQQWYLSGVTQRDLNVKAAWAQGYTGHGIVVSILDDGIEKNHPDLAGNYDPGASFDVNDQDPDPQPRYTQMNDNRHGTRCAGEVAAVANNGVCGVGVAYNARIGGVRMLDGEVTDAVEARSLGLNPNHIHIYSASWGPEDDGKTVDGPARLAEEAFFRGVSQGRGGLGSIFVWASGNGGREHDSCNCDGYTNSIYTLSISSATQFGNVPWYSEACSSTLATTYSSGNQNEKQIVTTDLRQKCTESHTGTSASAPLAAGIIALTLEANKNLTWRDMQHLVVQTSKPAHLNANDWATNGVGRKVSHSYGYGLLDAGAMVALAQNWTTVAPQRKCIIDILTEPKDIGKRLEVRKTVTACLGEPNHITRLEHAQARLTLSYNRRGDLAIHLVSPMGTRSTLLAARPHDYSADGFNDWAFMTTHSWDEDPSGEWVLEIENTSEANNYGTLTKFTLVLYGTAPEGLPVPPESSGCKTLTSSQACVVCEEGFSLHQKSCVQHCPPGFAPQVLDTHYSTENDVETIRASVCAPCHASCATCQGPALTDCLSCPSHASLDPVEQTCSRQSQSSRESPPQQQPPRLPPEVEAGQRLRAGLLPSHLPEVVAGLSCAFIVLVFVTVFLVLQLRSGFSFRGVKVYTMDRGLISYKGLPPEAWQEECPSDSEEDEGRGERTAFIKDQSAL
# Protocol: To determine if the peptides described herein have an effect on the activity of PC enzymes which are involved in a condition or disorder such as fibrosis, the effect of the peptides on furin activity in vitro was measured as percent inhibition of cleavage of the furin substrate fluorogenic t-butyloxycarbonyl (Boc)-RVRR-7-amino-4-methylcoumarin (MCA).
# All in vitro enzyme studies were performed at room temperature in a final volume of 50-100 μl in 96-well flat-bottom black plates. The buffer consisted of 100 mM HEPES, 1 mM CaCl2, 0.5% TritonX-100, and 1 mM 2-β-mercaptoethanol pH 7.5. Assays were performed using Boc-RVRR-MCA as fluorogenic substrate at 100 μM. Recombinant furin (0.8 U of activity) was incubated with Boc-RVRR-MCA in the presence or absence of varying concentrations of synthetic peptides D-9Rac/am (SEQ ID NO. 15), L-Bel1 (SEQ ID NO. 3), or L-9K (SEQ ID NO. 6). One unit of activity is defined as the amount of furin that can release 1 μmol of MCA from the fluorogenic Boc-RVRR-MCA per min at 30° C. The release of highly fluorescent 7-amino 4-methyl coumarin (MCA) from the Boc-RVRR-MCA was monitored by a spectrofluorometer instrument at excitation and emission wavelengths of 370 nm/460 nm. […]
# [3] = system: smooth muscle cell line (A7r5); experiment: Cell contraction/relaxation on silicon sheet, smooth muscle cells; format: cell-based
# Protocol: Lung biopsy was obtained from a Sprague Dawley rat, divided in small tissue slices, placed in culture dishes, and maintained then in organ culture in Dulbecco's modified Eagle's medium (GibcoBRL, Life Technologie) containing 10% decomplemented fetal bovine serum (FBS) supplemented with 100 U/ml penicillin, 100 μg/ml streptomycin, 4 mM I-glutamine, at 37° C., in 5% CO2. Cells were maintained during 2-3 weeks (2-8 passages), replacing medium frequently. At confluence, cells were detached from the culture dish with 0.125% trypsin-EDTA mixture (Sigma) for 10 minutes at 37° C., resuspended in complete medium, and seeded over silicon-coated tissue culture dishes at 3.5×10^3 cells/cm^2. One to two days after, cells were treated with the appropriate peptide at 10 or 50 μM, and peptide-induced cell contraction/relaxation effect followed for 1-3 hours by live videomicroscopy. A smooth muscle cell line (A7r5) kept in similar conditions was also used to follow the peptide-induced effects on these cells grown over silicon sheet.
# Live videomicroscopy was performed under controlled temperature and CO2 conditions using a Zeiss Axiovert 200M (Zeiss, Oberkochem, Germany), equipped with a spinning disk Nipkow confocal head (Yokogawa CSU10), Photometrics CoolSNAP-HQ CCD camera and Metamorph 6.0 acquisition software (Visitron Systems, Puchheim, Germany). […]
# [4] = system: PC-12 cells; experiment: Subcellular localization of FITC-labeled peptide and colocalization with furin, confocal microscopy; format: cell-based, rat; conditions: 1 and 100 μM
# From the text: Two peptides of interest were FITC-labeled (Anaspec) to follow their interiorization on PC-12 cells (rat pheochromocytoma cells): L-Bel1 (SEQ ID NO. 3) and D-9Rac/am (SEQ ID NO. 15). After observation of L-Bel1-FITC conjugate interiorization, a monoclonal antibody for furin endoprotease was used for colocalization studies by confocal microscopy analysis.
# PC-12 cells were resuspended in Dulbecco's modified Eagle's medium (DMEM) high glucose (Gibco BRL, Life Technologies) containing 6% decomplemented horse serum, 6% decomplemented fetal bovine serum, supplemented with 25 U/ml penicillin-streptomycin-I-glutamine. Cells were seeded at 3×10^4 cells/well (200 μl), on 8-well microscope slide chamber (BD Biosciences), previously coated with collagen I (Roche Diagnostics) solution (0.0007%). After an overnight incubation at 37° C. in 5% CO2, cells were washed twice using fresh medium without serum, and then incubated in the presence or absence of the peptide, for the indicated time. […]
# The fluorescent images were obtained by confocal laser scanning microscope (Zeiss LSM 510) with lasers of argon (488 nm), helium-neon 1 (543 nm), and enterprise (364 nm); connected to an inverted fluorescence microscope (Zeiss Axiovert 100 M), equipped with a 63×/1.4 PL APO chromate objective lens.
# [5] = system: lung fibroblasts; experiment: Stressed collagen lattice contraction assay; format: cell-based, rat; conditions: peptide 60 minutes before gel release; compared to control gels and L-9K treated gels; preliminary
structure (smiles),measurement,setting,value
N=C(N)NCCC[C@H](NC(=O)CNC(=O)[C@H](Cc1ccc(O)cc1)NC(=O)CN)C(=O)N[C@@H](CCCCN)C(=O)N[C@@H](CCCCN)C(=O)N[C@@H](CCCNC(=N)N)C(=O)N[C@@H](CCCNC(=N)N)C(=O)N[C@@H](CCC(N)=O)C(=O)N[C@@H](CCCNC(=N)N)C(=O)N[C@@H](CCCNC(=N)N)C(=O)N[C@@H](CCCNC(=N)N)C(=O)NCC(=O)O [L-Tat],relaxing effect on lung myofibroblasts on silicon substrate,[1],slow but constant loss of silicon substrate wrinkles and cell detachment
same,concentration for complete blockade of cleavage of Boc-RVRR-MCA by furin,[2],3.5 µM
same,inhibition of in vitro furin activity (in words),[2]; Boc-RVRR-MCA 100 μM as substrate,inhibited to completion
same,Ki,"[2]; furin, Boc-RVRR-MCA substrate, read-out: Ki(app)",370 nM
same,relaxing effect on smooth muscle cells,[3],same effect
same,internalization of FITC-labeled peptide,[4],crosses the basal membrane
same,myofibroblast-mediated collagen gel contraction,[5],decrease

# — patent US8318898B2, “Synthetic peptides for use as inhibitors of neurotransmitter secretion and as inducers of cellular relaxation” (Universite de Lausanne, priority 2005, dated 2012)
